# Data taken from PubChem BioAssay (NCI).
# Values joined by “and” are separate entries in the source; they are usually repeats but may differ in a detail not shown here. Equal entries are not always repeated.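 Grown in 96-well plates, cells were treated for 48 hours with each compound at five concentrations. Insufficient inhibition: endpoint recorded as highest concentration tested. The concentration for 50% growth inhibition is given as GI50. TGI is the concentration that stops growth completely.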
# Key:
# Experiment in all cases: NCI anticancer screen, dose series, 48 h
# [1] = test system: A549 NSCLC
# [2] = test system: NCI/ADR-RES ovarian
# [3] = test system: HS 578T breast
# [4] = test system: OVCAR-5 ovarian
# [5] = test system: T-47D breast
# [6] = test system: CAKI-1 renal
# [7] = test system: HCT-15 colon
# [8] = test system: NCI-H522 lung
# [9] = test system: UACC-62 melanoma
# [10] = test system: OVCAR-4 ovarian
Structure (SMILES),GI50 [1],TGI [1],GI50 [2],TGI [2],GI50 [3],TGI [3],GI50 [4] [µM],TGI [4],GI50 [5],TGI [5],GI50 [6],TGI [6] [µM],GI50 [7],TGI [7],GI50 [8],TGI [8],GI50 [9],TGI [9],GI50 [10],TGI [10]
Nc1ccc(-c2nc3ccc4[nH]ncc4c3c3c2CCCC3)cc1F,1.04 µM,9.54 µM,1.86 µM,16.6 µM,1.05 µM,3.91 µM,2.42,23 µM,1.2 µM,7.77 µM,0.323 µM,3.64,0.691 µM,8.05 µM,0.989 µM,6.93 µM,1.19 µM,6.71 µM,1.69 µM,23.5 µM
O=C(O)c1c(O)c2cc(Br)ccc2oc1=O,,> 100 µM,,> 100 µM,,> 100 µM,,> 100 µM,,> 100 µM,,> 100,,> 100 µM,,> 100 µM,,> 100 µM,,> 100 µM
O=C1NC(=O)/C(=C/C=C/c2ccccc2)S1,11.1 µM,> 100 µM,2.87 µM,> 100 µM,13.4 µM,> 100 µM,14.1,> 100 µM,12.8 µM,> 100 µM,0.46 µM,8.86,9.3 µM,51.7 µM,7.82 µM,52.7 µM,0.49 µM,27 µM,80.8 µM,> 100 µM
CC1(C)N=C(N)N=C(N)N1c1cccc(C#N)c1,0.932 µM,> 100 µM,75.9 µM,> 100 µM,71.6 µM,> 100 µM,2.74,> 100 µM,> 100 µM,> 100 µM,2.45 µM,> 100,5.65 µM,> 100 µM,4.68 µM,> 100 µM,3.84 µM,> 100 µM,> 100 µM,> 100 µM
Nc1[nH]c(=O)ncc1F,,> 100 µM,,> 100 µM,,> 100 µM,,> 100 µM,,> 100 µM,,> 100,,> 100 µM,,> 100 µM,,> 100 µM,,> 100 µM
C[C@]12O[C@H](C[C@]1(O)CO)n1c3ccccc3c3c4c(c5c6ccccc6n2c5c31)CNC4=O,0.176 µM and 0.191 µM,> 6.09 µM and 3.5 µM,0.87 µM and 1.37 µM,5.15 µM and 7.26 µM,0.178 µM and 0.239 µM,3.01 µM and 3.61 µM,0.114,> 10 µM and 4.79 µM,0.0791 µM and 0.337 µM,1.55 µM and 2.16 µM,0.00582 µM and < 0.0169 µM,,0.0605 µM and 0.0598 µM,5.91 µM and 9.52 µM,0.0374 µM and 0.135 µM,1.5 µM and 2.06 µM,0.0366 µM and 0.0402 µM,1.3 µM and 1.15 µM,0.891 µM and 1.4 µM,4.99 µM and 7.19 µM
O=C(NCc1cccnc1)/C(=C\c1ccc(Br)cc1)S(=O)(=O)c1ccccc1,1.48 µM,3.31 µM,1.75 µM,5.43 µM,1.25 µM,5.31 µM,0.929,2.33 µM,1.04 µM,3.12 µM,1.02 µM,2.22,0.536 µM,2.27 µM,0.38 µM,1.58 µM,1.14 µM,2.53 µM,0.416 µM,1.8 µM
